Results reported in patent US11202787B2, “Use of ACTH in assessment and prophylactic treatment of hypokalemia associated with glucocorticoid receptor modulator treatment of Cushing's syndrome patients” (Corcept Therapeutics, Inc., priority 2018, dated 2021).
Like-named read-outs stand apart in the source and are kept apart here.

Tests used:
[1] = tested on: healthy volunteers; assay: Previous clinical studies in healthy volunteers: adverse events; format: in vivo, human
From the text: Hypokalemia and rash appear to be more common in subjects receiving mifepristone than in the control groups.

[2] = tested on: psychotic major depression (PMD) subjects; assay: Double blind psychotic major depression (PMD) trials: hypokalemia; format: in vivo, human
From the text: Clinically meaningful hypokalemia (≤3.1) has been reported in 16 of 821 (1.9%) mifepristone treated subjects (12 in completed double blind PMD trials, and 4 in a completed Alzheimer's trial), and in 5 of 626 (0.8%) placebo treated subjects in completed PMD trials.

[3] = tested on: Cushing's syndrome patients; details: cited from earlier work
[4] = tested on: Cushing's syndrome patients; details: in vivo
Protocol: The risk of experiencing at least one episode of hypokalemia (potassium level <3.5 mEq/L) after 7 to 14 Days of exposure to KORLYM (mifepristone) was evaluated using stepwise multivariable logistic regression and single-variable logistic regression models. The following independent factors were evaluated for potential association with hypokalemia based on the biology of the disease: total cortisol at Day 1, ACTH at Day 1, and potassium level at Day 1.
The risk of experiencing at least one episode of hypokalemia (potassium level <3.5 mmol/L) after 28 Days of exposure to KORLYM was evaluated using stepwise multivariable logistic regression and single-variable logistic regression models. The following independent factors were evaluated for potential association with hypokalemia based on the biology of the disease: total cortisol at Day 1 and Day 14 (cort_01 and cort_14), ACTH at Day 1 and Day 14 (ACTH_01 and ACTH_14), and potassium levels at Day 1 and Day 14 (K_01 and K_14).
Patients were defined to have severe/recurrent hypokalemia for this analysis if they had at least one value of potassium of 2.5 mmol/L or lower, or if they had recurrent hypokalemia (hypokalemia occurring during multiple visits after Day 14 visit).
(§1) The Cushing's syndrome study reported herein was conducted in accordance with the Declaration of Helsinki and Good Clinical Practice (GCP) according to International Conference on Harmonization (ICH) guidelines.
(§2) Dosing Schedule Dosing was started with 300 mg of mifepristone once per day for 14 days. After 14 days, if no clinical improvement was seen but the drug was well tolerated, the dose of mifepristone was increased to 600 mg once per day. After 4 weeks of dosing at 600 mg once per day, if no clinical improvement was seen but the drug was well tolerated, the dose was increased to 900 mg once per day. Dose escalation was based on weight with the maximum dose no higher than 20 mg/kg/day. […] After 4 weeks of dosing at 900 mg once per day, if no clinical improvement was seen but the drug was well tolerated, the dose was increased to 1200 mg once per day. Study duration was 24 weeks.
Serum electrolytes, including potassium, were measured regularly throughout the study period.
Extensive modeling of low potassium levels among the N=47 subjects was performed to determine the best predictors of low potassium after start of mifepristone. The modeling was based on logistic regressions where the endpoint was categorical Low vs High Potassium levels (Non-Hypokalemic Potassium >3.5 mmol/L vs Hypokalemic Potassium ≤3.5 mmol/L).
(§3) Potassium levels were obtained on every subject at either screening or the pre-drug administration baseline visit, and then also at every scheduled post-baseline visit. Potassium levels post-baseline were therefore obtained as early as day 7 and through day 210 (week 30 was the last visit and was the 6 week follow-up visit). ACTH, and cortisol were measured at six visits (week 2 (day 14), week 6 (day 42), week 10 (day 70), week 16 (day 112), and week 24 (day 168) week 6 follow-up (day 210)).

[5] = tested on: cortisol; assay: Total serum cortisol during mifepristone treatment of Cushing's syndrome patients; format: in vivo, human; details: for Total Serum Cortisol Visit Values: Mean ± SD
From the text: The term “measuring the level,” in the context of cortisol, ACTH, mifepristone, or other compounds, refers to determining, detecting, or quantitating the amount, level, or concentration of, for example, cortisol, ACTH, mifepristone, or other compound in a sample obtained from a subject. Plasma or serum samples are often used for measuring ACTH or cortisol level.
The types of samples that are suitable for cortisol determination can be serum, plasma, saliva, urine, or any other biological fluid taken from a subject. In preferred embodiments, the sample is a serum sample, or is a plasma sample. The level of cortisol can be measured using various methods, including but not limited to, immunoassays, e.g., competitive immunoassay, radioimmunoassay (MA), immunofluorometric enzyme assay, and ELISA; competitive protein-binding assays; liquid chromatography (e.g., HPLC); and mass spectrometry, e.g., high-performance liquid chromatography/triple quadrupole-mass spectrometry (LC-MS/MS). In preferred embodiments, cortisol levels are measured using LC-MS/MS, such as performed by Quest Diagnostics (Secaucus, N.J. 07094).
as §1, §2, §3

## CC#C[C@]1(O)CC[C@H]2[C@@H]3CCC4=CC(=O)CCC4=C3[C@@H](c3ccc(N(C)C)cc3)C[C@@]21C [mifepristone, 11β-(4-dimethylaminophenyl)-17β-hydroxy-17α-(1-propynyl)-estra-4,9-dien-3-one]
[1]; previous clinical studies, healthy volunteers
  frequently reported adverse events: headache, gastrointestinal symptoms including diarrhea, nausea and vomiting, and rash
[1]; subjects receiving mifepristone vs control groups
  Hypokalemia and rash versus control groups: more common
[2]; 16 of 821 mifepristone treated subjects, PMD and Alzheimer's trials together
  Clinically meaningful hypokalemia (≤3.1): 1.9%
[2]; 61 of 782 mifepristone treated subjects
  Hypokalemia in the range of 2.4 to 3.4 mEq/L: 7.8%
[2]; completed double blind PMD trials
  Clinically meaningful hypokalemia (≤3.1), subjects: 12
[3]; of 43 Cushing's syndrome patients (ACTH-dependent and ACTH-independent)
  patients with serum potassium levels less than 3.5 mEq/L: 22 patients
[3]; of the 22 hypokalemic of 43 patients
  patients with serum potassium levels less than 2.5 mEq/L (severe hypokalemia): 3 patients
[4]; both, human
  developed hypokalemia on or after Day 28: 6.7%
  developed severe/recurrent hypokalemia on or after Day 28: 6.7%
  subjects with a Potassium value ≤3.5 mmol/L at any of the six visits: 21 subjects
  subjects with a Potassium value ≤3.5 mmol/L at any post-baseline visit: 23 subjects
[4]; both, human, 6 week
  Number with Hypokalemia (%) (Potassium ≤ 3.4 mEq/L): 7 (14%) Number (%)
[4]; both, human, 8 week
  Number with Hypokalemia (%) (Potassium ≤ 3.4 mEq/L): 4 (8%) Number (%)
[4]; both, human, 10 week
  Number with Hypokalemia (%) (Potassium ≤ 3.4 mEq/L): 4 (8%) Number (%)
[4]; both, human, 12 week
  Number with Hypokalemia (%) (Potassium ≤ 3.4 mEq/L): 3 (6%) Number (%)
  Number with Severe Hypokalemia (%) (Potassium ≤ 2.5 mEq/L): 1 (2%) Number (%)
[4]; both, human, 16 week
  Number with Hypokalemia (%) (Potassium ≤ 3.4 mEq/L): 5 (10%) Number (%)
  Number with Severe Hypokalemia (%) (Potassium ≤ 2.5 mEq/L): 1 (2%) Number (%)
[4]; both, human, 20 week
  Number with Hypokalemia (%) (Potassium ≤ 3.4 mEq/L): 1 (2%) Number (%)
[4]; both, human, 24 week
  Number with Hypokalemia (%) (Potassium ≤ 3.4 mEq/L): 4 (8%) Number (%)
[4]; both, human, 24 weeks
  Hypokalemia observed: 44%
  No Hypokalemia: 29 (64.4) n (%)
  Non-Severe Hypokalemia: 7 (15.6) n (%)
  Severe/Recurrent Hypokalemia: 9 (20.0) n (%)
  developed hypokalemia after dosing: 42.9%
[4]; both, human, 30 week
  Number with Hypokalemia (%) (Potassium ≤ 3.4 mEq/L): 3 (6%) Number (%)
  Number with Severe Hypokalemia (%) (Potassium ≤ 2.5 mEq/L): 1 (2%) Number (%)
[4]; both, human, 1 day
  Number with Hypokalemia (%) (Potassium ≤ 3.4 mEq/L): 2 (4%) Number (%)
[4]; both, human, 7 day
  Number with Hypokalemia (%) (Potassium ≤ 3.4 mEq/L): 2 (4%) Number (%)
[4]; both, human, 14 day
  Number of Subjects Hypokalemic <=3.5 mmol/L: 8
  Number of Subjects Non-Hypokalemic >3.5 mmol/L: 38
  Number with Hypokalemia (%) (Potassium ≤ 3.4 mEq/L): 8 (16%) Number (%)
  Number with Severe Hypokalemia (%) (Potassium ≤ 2.5 mEq/L): 1 (2%) Number (%)
[4]; both, human, 14 days
  subjects with a Potassium value ≤3.5 mmol/L as early as day 14: 8
  subjects with a Potassium value ≤3.5 mmol/L as early as day 14, all post-baseline values: 11
[4]; both, human, 28 day
  Number with Hypokalemia (%) (Potassium ≤ 3.4 mEq/L): 10 (20%) Number (%)
[4]; both, human, 42 day
  Number of Subjects Hypokalemic <=3.5 mmol/L: 6
  Number of Subjects Non-Hypokalemic >3.5 mmol/L: 35
[4]; both, human, 70 day
  Number of Subjects Hypokalemic <=3.5 mmol/L: 6
  Number of Subjects Non-Hypokalemic >3.5 mmol/L: 30
[4]; both, human, 112 day
  Number of Subjects Hypokalemic <=3.5 mmol/L: 9
  Number of Subjects Non-Hypokalemic >3.5 mmol/L: 23
[4]; both, human, 168 day
  Number of Subjects Hypokalemic <=3.5 mmol/L: 5
  Number of Subjects Non-Hypokalemic >3.5 mmol/L: 37
[4]; both, human, 210 day
  Number of Subjects Hypokalemic <=3.5 mmol/L: 3
  Number of Subjects Non-Hypokalemic >3.5 mmol/L: 37
[4]
  patients with at least one potassium value of 2.5 mmol/L or lower: two
  severity of hypokalemia: mild to moderate
  subjects with a day 7 Potassium value ≤3.5 mmol/L: three
  subjects with reported treatment emergent adverse events (TEAEs) of decreased blood potassium: Seventeen
[5]; 43 subjects with Cushing's disease
  serum cortisol increase during mifepristone treatment: increased to a smaller degree
[5]; Day 14, Hypokalemic
  Total Serum Cortisol Visit Values: 1261 ± 786 (8) nmol/L
[5]; Day 14, Non-Hypokalemic
  Total Serum Cortisol Visit Values: 782 ± 246 (38) nmol/L
[5]; Day 42, Hypokalemic
  Total Serum Cortisol Visit Values: 1274 ± 401 (6) nmol/L
[5]; Day 42, Non-Hypokalemic
  Total Serum Cortisol Visit Values: 828 ± 249 (35) nmol/L
[5]; Day 70, Hypokalemic
  Total Serum Cortisol Visit Values: 1390 ± 283 (6) nmol/L
[5]; Day 70, Non-Hypokalemic
  Total Serum Cortisol Visit Values: 1025 ± 546 (30) nmol/L
[5]; Day 112, Hypokalemic
  Total Serum Cortisol Visit Values: 1318 ± 677 (9) nmol/L
[5]; Day 112, Non-Hypokalemic
  Total Serum Cortisol Visit Values: 813 ± 318 (23) nmol/L
[5]; Day 168, Hypokalemic
  Total Serum Cortisol Visit Values: 1298 ± 597 (5) nmol/L
[5]; Day 168, Non-Hypokalemic
  Total Serum Cortisol Visit Values: 948 ± 537 (37) nmol/L
[5]; Day 210 (6 week follow-up), Hypokalemic
  Total Serum Cortisol Visit Values: 1228 ± 561 (3) nmol/L
[5]; Day 210 (6 week follow-up), Non-Hypokalemic
  Total Serum Cortisol Visit Values: 696 ± 477 (37) nmol/L
